{"source": "patent US20240350542A1", "about": "“ANTICANCER T CELL THERAPY PRODUCT-ASSISTING COMPOSITION COMPRISING DEPLETING ANTI-CD4 MONOCLONAL ANTIBODY AND USE THEREOF” (NATIONAL CANCER CENTER, priority 2018, published 2024)", "key": {"[1]": {"system": "B16-F10 melanoma cancer cells", "protocol": "(§1) Specifically, 2×10^5 B16-F10 melanoma cancer cells were subcutaneously injected into the dorsal area of a C57BL/6 mouse to induce the formation of cancer tissue. At the same time, aPmel-1 was prepared in the same manner as in Example 1. aPmel-1 and IL-2 were administered in the same manner as in Example 1, and transient immunodeficiency was induced by intraperitoneally injecting 150, 200 and 300 mg/kg of cyclophosphamide (CTX) two days before the aPmel-1 administration. In addition, to confirm a period of maintaining transient immunodeficiency according to the dose of CTX, 150, 200 and 300 mg/kg of CTX was intraperitoneally injected into C57BL/6 mice once, and an inguinal lymph node and the spleen of the mice were collected, followed by single cell suspension and then counting a cell number."}, "[2]": {"system": "inguinal lymph node and spleen cell number", "protocol": "as §1"}}, "note": "Like-named read-outs stand apart in the source and are kept apart here.", "data": [{"compound": "O=P1(N(CCCl)CCCl)NCCCO1", "note": "(stereo not drawn) [CTX, cyclophosphamide]", "values": [{"measurement": "toxicity to the mouse", "setting": "[1]; 300 mg/kg or more of CTX", "value": "can be toxic to the mouse, leading to the death of the mouse"}, {"measurement": "survival of mouse", "setting": "[1]; C57BL/6, 150 mg/kg CTX only", "value": "up to 35 days"}, {"measurement": "growth of cancer tissue", "setting": "[1]; C57BL/6, 150 mg/kg CTX only, vs NT", "value": "cancer tissue grew more slowly"}, {"measurement": "growth of cancer tissue", "setting": "[1]; C57BL/6, 200 mg/kg CTX only", "value": "slower growth of cancer tissue than the 150 mg/kg CTX-administered mouse"}, {"measurement": "survival of mouse", "setting": "[1]; C57BL/6, 200 mg/kg CTX only", "value": "up to 45 days"}, {"measurement": "growth of cancer tissue", "setting": "[1]; C57BL/6, 300 mg/kg CTX only", "value": "slower growth of cancer tissue than when 200 mg/kg CTX-administered mouse"}, {"measurement": "survival of mouse", "setting": "[1]; C57BL/6, 300 mg/kg CTX only", "value": "up to 60 days"}, {"measurement": "transient immunodeficiency effect", "setting": "[2]; C57BL/6, 150 mg/kg CTX", "value": "insignificant"}, {"measurement": "period the immunodeficiency effect was maintained", "setting": "[2]; C57BL/6, 200 mg/kg CTX intraperitoneally once", "value": "approximately 2 weeks"}]}]}
